Laboratory results as given in the NIST ThermoML archive (doi:10.1021/je050402s).
± gives the expanded uncertainty stated by the source.

Assay: xn = mol fraction of the nth substance listed
Details: 100.5 kPa, Liquid; for viscosity: Capillary tube (Ostwald / Ubbelohde) method

CCOC(=O)CC(C)=O [ethyl 3-oxobutanoate] + CCO
Details	mass density, 288.15 K [kg/m3]	mass density, 298.15 K [kg/m3]	mass density, 308.15 K [kg/m3]	mass density, 318.15 K [kg/m3]	viscosity, 288.15 K [mPa·s]	viscosity, 298.15 K [mPa·s]	viscosity, 308.15 K [mPa·s]	viscosity, 318.15 K [mPa·s]
x1 = 0.05	818.78 ± 0.41	809.91 ± 0.43	800.94 ± 0.44	791.8 ± 0.45	1.266 ± 0.014	1.042 ± 0.013	0.869 ± 0.013	0.731 ± 0.013
x1 = 0.1	841 ± 0.38	831.89 ± 0.4	822.68 ± 0.41	813.32 ± 0.42	1.204 ± 0.014	1.001 ± 0.013	0.841 ± 0.013	0.713 ± 0.013
x1 = 0.15	860.94 ± 0.36	851.63 ± 0.37	842.22 ± 0.39	832.67 ± 0.4	1.19 ± 0.014	0.99 ± 0.013	0.832 ± 0.013	0.709 ± 0.013
x1 = 0.2	878.93 ± 0.34	869.45 ± 0.35	859.89 ± 0.37	850.17 ± 0.38	1.194 ± 0.014	0.994 ± 0.013	0.837 ± 0.013	0.712 ± 0.013
x1 = 0.25	895.25 ± 0.32	885.63 ± 0.34	875.91 ± 0.35	866.05 ± 0.36	1.206 ± 0.014	1.003 ± 0.013	0.846 ± 0.013	0.721 ± 0.013
x1 = 0.3	910.15 ± 0.31	900.41 ± 0.32	890.57 ± 0.34	880.6 ± 0.35	1.226 ± 0.014	1.019 ± 0.013	0.86 ± 0.013	0.735 ± 0.013
x1 = 0.35	923.79 ± 0.31	913.94 ± 0.32	903.99 ± 0.33	893.92 ± 0.34	1.25 ± 0.014	1.038 ± 0.013	0.878 ± 0.013	0.751 ± 0.013
x1 = 0.4	936.31 ± 0.3	926.37 ± 0.31	916.34 ± 0.32	906.18 ± 0.34	1.28 ± 0.014	1.061 ± 0.014	0.898 ± 0.013	0.768 ± 0.013
x1 = 0.45	947.86 ± 0.3	937.83 ± 0.31	927.73 ± 0.32	917.49 ± 0.33	1.312 ± 0.014	1.087 ± 0.014	0.921 ± 0.013	0.789 ± 0.013
x1 = 0.5	958.56 ± 0.31	948.47 ± 0.31	938.29 ± 0.32	927.99 ± 0.33	1.349 ± 0.014	1.117 ± 0.014	0.947 ± 0.013	0.812 ± 0.013
x1 = 0.55	968.53 ± 0.31	958.37 ± 0.31	948.11 ± 0.32	937.75 ± 0.33	1.39 ± 0.015	1.151 ± 0.014	0.974 ± 0.013	0.836 ± 0.013
x1 = 0.6	977.79 ± 0.31	967.55 ± 0.32	957.24 ± 0.32	946.84 ± 0.33	1.435 ± 0.015	1.189 ± 0.014	1.004 ± 0.014	0.861 ± 0.013
x1 = 0.65	986.4 ± 0.32	976.13 ± 0.32	965.77 ± 0.33	955.36 ± 0.34	1.484 ± 0.015	1.227 ± 0.014	1.036 ± 0.014	0.888 ± 0.013
x1 = 0.7	994.51 ± 0.33	984.17 ± 0.33	973.79 ± 0.34	963.33 ± 0.34	1.536 ± 0.015	1.27 ± 0.014	1.073 ± 0.014	0.917 ± 0.013
x1 = 0.75	1002.07 ± 0.34	991.71 ± 0.34	981.29 ± 0.35	970.82 ± 0.35	1.591 ± 0.016	1.316 ± 0.015	1.112 ± 0.014	0.948 ± 0.013
x1 = 0.8	1009.18 ± 0.36	998.79 ± 0.36	988.36 ± 0.36	977.88 ± 0.36	1.65 ± 0.016	1.366 ± 0.015	1.154 ± 0.014	0.983 ± 0.014
x1 = 0.85	1015.85 ± 0.39	1005.46 ± 0.38	995.02 ± 0.37	984.54 ± 0.38	1.709 ± 0.016	1.415 ± 0.015	1.199 ± 0.014	1.018 ± 0.014
x1 = 0.9	1022.16 ± 0.41	1011.74 ± 0.4	1001.3 ± 0.39	990.84 ± 0.39	1.773 ± 0.017	1.471 ± 0.015	1.247 ± 0.015	1.059 ± 0.014
x1 = 0.95	1028.15 ± 0.43	1017.72 ± 0.42	1007.29 ± 0.41	996.82 ± 0.41	1.834 ± 0.017	1.524 ± 0.016	1.295 ± 0.015	1.103 ± 0.014
x1 = 1	1033.92 ± 0.45	1023.45 ± 0.44	1013 ± 0.43	1002.54 ± 0.43	1.902 ± 0.017	1.581 ± 0.016	1.344 ± 0.015	1.144 ± 0.014

COC(=O)c1ccccc1 [methyl benzoate] + CCO
Details	mass density, 288.15 K [kg/m3]	mass density, 298.15 K [kg/m3]	mass density, 308.15 K [kg/m3]	mass density, 318.15 K [kg/m3]	viscosity, 288.15 K [mPa·s]	viscosity, 298.15 K [mPa·s]	viscosity, 308.15 K [mPa·s]	viscosity, 318.15 K [mPa·s]
x1 = 0.05	825.66 ± 0.4	816.86 ± 0.42	807.97 ± 0.43	798.9 ± 0.44	1.324 ± 0.014	1.092 ± 0.013	0.911 ± 0.013	0.766 ± 0.013
x1 = 0.1	853.88 ± 0.36	844.92 ± 0.38	835.86 ± 0.39	826.58 ± 0.41	1.323 ± 0.014	1.094 ± 0.014	0.915 ± 0.013	0.77 ± 0.013
x1 = 0.15	879.1 ± 0.33	869.96 ± 0.35	860.69 ± 0.36	851.28 ± 0.37	1.338 ± 0.014	1.107 ± 0.014	0.924 ± 0.013	0.782 ± 0.013
x1 = 0.2	901.63 ± 0.31	892.4 ± 0.32	883.02 ± 0.34	873.48 ± 0.35	1.359 ± 0.014	1.122 ± 0.014	0.94 ± 0.013	0.797 ± 0.013
x1 = 0.25	922.04 ± 0.29	912.73 ± 0.31	903.27 ± 0.32	893.66 ± 0.33	1.383 ± 0.014	1.144 ± 0.014	0.958 ± 0.013	0.814 ± 0.013
x1 = 0.3	940.62 ± 0.28	931.27 ± 0.29	921.76 ± 0.3	912.06 ± 0.32	1.417 ± 0.014	1.171 ± 0.014	0.981 ± 0.013	0.834 ± 0.013
x1 = 0.35	957.58 ± 0.28	948.19 ± 0.29	938.63 ± 0.3	928.88 ± 0.31	1.455 ± 0.015	1.199 ± 0.014	1.006 ± 0.013	0.855 ± 0.013
x1 = 0.4	973.15 ± 0.28	963.7 ± 0.28	954.11 ± 0.29	944.3 ± 0.3	1.496 ± 0.015	1.232 ± 0.014	1.031 ± 0.013	0.877 ± 0.013
x1 = 0.45	987.48 ± 0.28	978.01 ± 0.29	968.36 ± 0.29	958.52 ± 0.3	1.541 ± 0.015	1.266 ± 0.014	1.061 ± 0.014	0.902 ± 0.013
x1 = 0.5	1000.69 ± 0.29	991.23 ± 0.29	981.53 ± 0.3	971.68 ± 0.31	1.589 ± 0.015	1.303 ± 0.014	1.091 ± 0.014	0.928 ± 0.013
x1 = 0.55	1012.94 ± 0.31	1003.42 ± 0.3	993.75 ± 0.3	983.88 ± 0.3	1.64 ± 0.015	1.341 ± 0.014	1.123 ± 0.014	0.954 ± 0.013
x1 = 0.6	1024.33 ± 0.33	1014.81 ± 0.32	1005.11 ± 0.31	995.26 ± 0.31	1.692 ± 0.016	1.384 ± 0.015	1.158 ± 0.014	0.982 ± 0.013
x1 = 0.65	1034.94 ± 0.35	1025.44 ± 0.34	1015.73 ± 0.33	1005.87 ± 0.32	1.746 ± 0.016	1.429 ± 0.015	1.193 ± 0.014	1.014 ± 0.014
x1 = 0.7	1044.83 ± 0.37	1035.36 ± 0.36	1025.64 ± 0.35	1015.8 ± 0.34	1.807 ± 0.016	1.475 ± 0.015	1.231 ± 0.014	1.047 ± 0.014
x1 = 0.75	1054.13 ± 0.39	1044.67 ± 0.38	1034.95 ± 0.37	1025.13 ± 0.36	1.87 ± 0.017	1.526 ± 0.015	1.275 ± 0.014	1.083 ± 0.014
x1 = 0.8	1062.88 ± 0.42	1053.41 ± 0.41	1043.73 ± 0.4	1033.93 ± 0.39	1.942 ± 0.017	1.581 ± 0.016	1.318 ± 0.015	1.122 ± 0.014
x1 = 0.85	1071.11 ± 0.44	1061.7 ± 0.43	1052.04 ± 0.42	1042.24 ± 0.41	2.03 ± 0.018	1.645 ± 0.016	1.369 ± 0.015	1.166 ± 0.014
x1 = 0.9	1078.93 ± 0.47	1069.53 ± 0.46	1059.87 ± 0.45	1050.1 ± 0.44	2.118 ± 0.018	1.712 ± 0.016	1.421 ± 0.015	1.208 ± 0.014
x1 = 0.95	1086.31 ± 0.49	1076.94 ± 0.48	1067.3 ± 0.47	1057.55 ± 0.46	2.207 ± 0.019	1.784 ± 0.017	1.48 ± 0.015	1.255 ± 0.015
x1 = 1	1093.23 ± 0.52	1083.92 ± 0.51	1074.34 ± 0.5	1064.62 ± 0.49	2.297 ± 0.019	1.851 ± 0.017	1.531 ± 0.016	1.297 ± 0.015
